# From patent US11339163B2, “BRaf inhibitors and use thereof for treatment of cutaneous reactions” (Lutris Pharma Ltd., priority 2017, dated 2022)
# Key:
# [1] = BCOP study (eye irritation)
# [2] = biological target: PI3 Kinase (p110δ/p85α)(h) (Homo sapiens, UniProt O00329); assay: KinaseProfiler kinase selectivity assay; format: biochemical
# Protocol: (§1) All compounds were prepared to 50× final assay concentration in 100% DMSO. This working stock of the compound was added to the assay well as the first component in the reaction, followed by the remaining components. In the standard KinaseProfiler™ service, there is no pre-incubation step between the compound and the kinase prior to initiation of the reaction. The positive control wells contain all components of the reaction, except the compound of interest; however, DMSO (at a final concentration of 2%) is included in these wells to control for solvent effects. The blank wells contain all components of the reaction, with a reference inhibitor replacing the compound of interest. This abolishes kinase activity and establishes the base-line (0% kinase activity remaining).
# [3] = biological target: mTOR(h) (Homo sapiens, UniProt P42345); assay: KinaseProfiler kinase selectivity assay; format: biochemical
# Protocol: as §1
# [4] = biological target: PI3 Kinase (p110α/p85α)(h) (Homo sapiens, UniProt P42336); assay: KinaseProfiler kinase selectivity assay; format: biochemical
# Chain of PI3 Kinase (p110α/p85α)(h) (P42336 whole entry): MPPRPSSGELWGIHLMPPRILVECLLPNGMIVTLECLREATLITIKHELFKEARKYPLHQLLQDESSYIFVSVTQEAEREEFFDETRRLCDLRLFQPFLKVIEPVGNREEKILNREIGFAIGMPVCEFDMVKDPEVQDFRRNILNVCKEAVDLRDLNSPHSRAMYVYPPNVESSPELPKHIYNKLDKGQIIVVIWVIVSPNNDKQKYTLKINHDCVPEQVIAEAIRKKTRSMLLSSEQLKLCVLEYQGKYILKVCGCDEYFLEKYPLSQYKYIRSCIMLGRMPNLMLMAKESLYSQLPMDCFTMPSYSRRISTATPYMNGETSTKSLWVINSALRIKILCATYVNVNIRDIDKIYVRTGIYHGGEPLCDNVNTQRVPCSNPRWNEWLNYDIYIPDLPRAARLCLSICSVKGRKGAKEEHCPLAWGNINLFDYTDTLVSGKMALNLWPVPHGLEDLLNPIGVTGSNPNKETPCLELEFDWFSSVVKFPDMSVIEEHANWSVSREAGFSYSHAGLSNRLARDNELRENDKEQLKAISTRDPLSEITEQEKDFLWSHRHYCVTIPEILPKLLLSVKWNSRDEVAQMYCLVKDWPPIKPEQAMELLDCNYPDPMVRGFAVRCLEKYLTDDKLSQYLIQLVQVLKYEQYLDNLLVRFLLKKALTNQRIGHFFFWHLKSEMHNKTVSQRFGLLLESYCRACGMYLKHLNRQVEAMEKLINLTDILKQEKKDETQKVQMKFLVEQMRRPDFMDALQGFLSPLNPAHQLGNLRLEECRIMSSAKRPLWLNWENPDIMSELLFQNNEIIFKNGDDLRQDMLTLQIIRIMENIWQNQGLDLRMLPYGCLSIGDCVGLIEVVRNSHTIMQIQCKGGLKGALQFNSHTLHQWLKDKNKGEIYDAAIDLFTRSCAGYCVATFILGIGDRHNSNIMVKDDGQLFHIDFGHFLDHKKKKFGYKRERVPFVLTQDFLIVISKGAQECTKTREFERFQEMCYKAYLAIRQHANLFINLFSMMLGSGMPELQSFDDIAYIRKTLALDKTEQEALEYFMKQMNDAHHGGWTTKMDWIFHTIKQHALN
# Chain of PI3 Kinase (p110α/p85α)(h) (P27986 whole entry partner): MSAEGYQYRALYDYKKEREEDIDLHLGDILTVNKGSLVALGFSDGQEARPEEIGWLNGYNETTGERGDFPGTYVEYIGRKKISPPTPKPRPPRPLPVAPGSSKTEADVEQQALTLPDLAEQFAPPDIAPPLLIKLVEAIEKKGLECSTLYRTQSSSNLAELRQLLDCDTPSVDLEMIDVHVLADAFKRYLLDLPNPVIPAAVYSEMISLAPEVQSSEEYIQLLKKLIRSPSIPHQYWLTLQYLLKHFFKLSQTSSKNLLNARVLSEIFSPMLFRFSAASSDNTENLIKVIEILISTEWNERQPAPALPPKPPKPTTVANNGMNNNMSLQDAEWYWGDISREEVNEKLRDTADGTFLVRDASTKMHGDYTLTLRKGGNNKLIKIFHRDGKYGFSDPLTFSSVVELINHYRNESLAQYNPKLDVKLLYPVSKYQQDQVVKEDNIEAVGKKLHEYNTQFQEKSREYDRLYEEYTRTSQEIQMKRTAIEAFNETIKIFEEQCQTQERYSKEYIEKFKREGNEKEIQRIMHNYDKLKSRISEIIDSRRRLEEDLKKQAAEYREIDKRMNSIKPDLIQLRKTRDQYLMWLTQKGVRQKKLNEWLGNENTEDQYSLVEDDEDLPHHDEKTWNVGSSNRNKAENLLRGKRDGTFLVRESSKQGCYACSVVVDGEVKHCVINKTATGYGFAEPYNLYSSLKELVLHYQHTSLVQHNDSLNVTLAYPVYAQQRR
# Protocol: as §1
# [5] = biological target: KDR(h) (Homo sapiens, UniProt P35968); assay: KinaseProfiler kinase selectivity assay; format: biochemical
# Chain of KDR(h) (P35968 20-1356): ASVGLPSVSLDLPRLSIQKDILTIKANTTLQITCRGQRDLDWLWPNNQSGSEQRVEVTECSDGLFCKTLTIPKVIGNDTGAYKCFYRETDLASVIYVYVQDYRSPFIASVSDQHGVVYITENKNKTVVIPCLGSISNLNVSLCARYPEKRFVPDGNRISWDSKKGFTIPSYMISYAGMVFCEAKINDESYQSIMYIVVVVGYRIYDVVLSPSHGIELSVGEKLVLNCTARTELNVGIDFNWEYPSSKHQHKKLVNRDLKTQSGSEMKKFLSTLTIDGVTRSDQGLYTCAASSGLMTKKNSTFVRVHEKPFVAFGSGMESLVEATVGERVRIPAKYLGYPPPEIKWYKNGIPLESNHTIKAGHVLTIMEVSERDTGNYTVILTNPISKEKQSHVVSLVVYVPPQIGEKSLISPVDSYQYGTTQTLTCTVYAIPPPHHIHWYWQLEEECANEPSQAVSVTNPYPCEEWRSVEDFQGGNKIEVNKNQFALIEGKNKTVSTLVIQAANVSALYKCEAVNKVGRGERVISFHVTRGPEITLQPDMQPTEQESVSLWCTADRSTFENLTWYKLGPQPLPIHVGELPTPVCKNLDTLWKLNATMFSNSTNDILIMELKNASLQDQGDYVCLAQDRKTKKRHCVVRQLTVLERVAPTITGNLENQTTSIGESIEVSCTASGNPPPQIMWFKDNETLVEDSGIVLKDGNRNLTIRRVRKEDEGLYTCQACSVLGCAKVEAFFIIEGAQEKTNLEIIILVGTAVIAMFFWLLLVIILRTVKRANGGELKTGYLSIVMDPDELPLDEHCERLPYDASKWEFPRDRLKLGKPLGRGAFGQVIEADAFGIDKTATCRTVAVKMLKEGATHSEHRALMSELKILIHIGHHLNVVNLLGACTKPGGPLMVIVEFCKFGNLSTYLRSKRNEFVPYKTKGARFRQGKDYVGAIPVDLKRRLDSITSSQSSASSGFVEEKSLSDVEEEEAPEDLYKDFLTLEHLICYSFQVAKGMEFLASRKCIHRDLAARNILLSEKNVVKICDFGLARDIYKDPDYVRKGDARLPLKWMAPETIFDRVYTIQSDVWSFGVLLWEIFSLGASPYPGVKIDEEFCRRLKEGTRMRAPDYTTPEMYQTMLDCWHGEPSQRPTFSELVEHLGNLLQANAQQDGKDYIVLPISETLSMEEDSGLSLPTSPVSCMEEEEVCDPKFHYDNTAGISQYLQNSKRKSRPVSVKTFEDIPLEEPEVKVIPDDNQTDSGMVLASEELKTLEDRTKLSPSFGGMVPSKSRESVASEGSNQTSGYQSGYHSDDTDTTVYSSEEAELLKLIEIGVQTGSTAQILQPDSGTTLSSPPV
# Protocol: as §1
# [6] = biological target: Pim-1(h) (Homo sapiens, UniProt P11309); assay: KinaseProfiler kinase selectivity assay; format: biochemical
# Protocol: as §1
# [7] = biological target: CDK9/cyclin T1(h) (Homo sapiens, UniProt P50750); assay: KinaseProfiler kinase selectivity assay; format: biochemical
# Protocol: as §1
# [8] = biological target: IRAK4(h) (Homo sapiens, UniProt Q9NWZ3); assay: KinaseProfiler kinase selectivity assay; format: biochemical
# Protocol: as §1
# [9] = biological target: MLK1(h) (Homo sapiens, UniProt P80192); assay: KinaseProfiler kinase selectivity assay; format: biochemical
# Protocol: as §1
# [10] = biological target: Fyn(h) (Homo sapiens, UniProt P06241); assay: KinaseProfiler kinase selectivity assay; format: biochemical
# Chain of Fyn(h) (P06241 whole entry): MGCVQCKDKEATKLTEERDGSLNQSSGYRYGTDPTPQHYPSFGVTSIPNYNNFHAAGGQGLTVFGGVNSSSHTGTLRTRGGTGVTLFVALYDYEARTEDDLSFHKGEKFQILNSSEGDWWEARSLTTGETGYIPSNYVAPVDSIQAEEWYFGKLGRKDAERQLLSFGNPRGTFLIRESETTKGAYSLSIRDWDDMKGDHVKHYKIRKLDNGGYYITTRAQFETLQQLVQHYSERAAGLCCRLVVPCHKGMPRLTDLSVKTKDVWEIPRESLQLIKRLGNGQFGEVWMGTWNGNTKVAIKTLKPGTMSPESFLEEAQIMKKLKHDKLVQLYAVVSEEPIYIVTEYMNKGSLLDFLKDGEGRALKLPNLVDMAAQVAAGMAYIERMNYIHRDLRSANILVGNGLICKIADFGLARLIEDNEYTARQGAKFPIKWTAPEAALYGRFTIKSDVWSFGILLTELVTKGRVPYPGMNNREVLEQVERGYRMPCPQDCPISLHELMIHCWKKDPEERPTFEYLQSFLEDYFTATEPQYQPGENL
# Protocol: as §1
# [11] = biological target: CDK1/cyclinB(h) (Homo sapiens, UniProt P06493); assay: KinaseProfiler kinase selectivity assay; format: biochemical
# Chain of CDK1/cyclinB(h) (P06493 whole entry): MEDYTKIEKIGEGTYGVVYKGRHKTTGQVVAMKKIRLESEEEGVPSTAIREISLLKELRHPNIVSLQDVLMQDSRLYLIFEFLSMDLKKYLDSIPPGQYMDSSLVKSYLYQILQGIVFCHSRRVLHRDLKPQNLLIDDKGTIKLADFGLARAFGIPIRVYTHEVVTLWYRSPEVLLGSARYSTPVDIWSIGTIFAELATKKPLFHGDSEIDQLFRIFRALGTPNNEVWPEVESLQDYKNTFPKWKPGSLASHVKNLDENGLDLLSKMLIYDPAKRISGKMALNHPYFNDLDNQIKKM
# Chain of CDK1/cyclinB(h) (P14635 whole entry partner): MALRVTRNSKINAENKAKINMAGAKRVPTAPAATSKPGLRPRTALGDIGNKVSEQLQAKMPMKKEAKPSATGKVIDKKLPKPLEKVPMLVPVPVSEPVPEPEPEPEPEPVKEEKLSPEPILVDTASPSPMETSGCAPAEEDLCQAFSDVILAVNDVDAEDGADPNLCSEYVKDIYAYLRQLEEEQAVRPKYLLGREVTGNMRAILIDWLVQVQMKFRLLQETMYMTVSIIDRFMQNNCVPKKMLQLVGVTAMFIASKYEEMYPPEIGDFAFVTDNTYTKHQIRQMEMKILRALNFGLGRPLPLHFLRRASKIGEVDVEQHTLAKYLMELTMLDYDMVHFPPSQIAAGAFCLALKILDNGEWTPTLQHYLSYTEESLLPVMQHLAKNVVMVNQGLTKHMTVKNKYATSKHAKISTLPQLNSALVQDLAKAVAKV
# Protocol: as §1
# [12] = biological target: CK2α2(h) (Homo sapiens, UniProt P19784); assay: KinaseProfiler kinase selectivity assay; format: biochemical
# Chain of CK2α2(h) (P19784 whole entry): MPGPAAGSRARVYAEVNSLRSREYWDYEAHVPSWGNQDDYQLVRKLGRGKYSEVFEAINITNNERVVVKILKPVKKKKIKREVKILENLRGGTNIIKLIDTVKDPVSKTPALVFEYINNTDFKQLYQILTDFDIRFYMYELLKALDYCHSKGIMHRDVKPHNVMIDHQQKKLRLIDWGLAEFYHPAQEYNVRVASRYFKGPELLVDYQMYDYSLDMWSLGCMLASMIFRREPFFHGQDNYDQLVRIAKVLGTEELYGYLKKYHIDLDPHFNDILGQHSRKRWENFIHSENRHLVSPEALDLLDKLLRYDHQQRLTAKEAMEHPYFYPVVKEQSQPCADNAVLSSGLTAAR
# Protocol: as §1
# [13] = system: ERK phosphorylation in HEKa cells; assay: phospho-ERK in HEKa cells following EGFR inhibitors (Western blot); format: cell-based, human
# Protocol: Human normal keratinocyte cells HEKa were purchased from Gibco Rhenium and seeded in 10 cm dishes (300,000 cells/dish) and incubated overnight at 37° C., 5% CO2. Next morning, the medium was replaced to a starvation medium for 2 hours and then the cells were treated for 2 additional hours with the test compounds. Post incubation, the cells were lyzed with RIPA and the protein extracts were analyzed by western blot for Phospho-ERK and total ERK. Untreated cells and 0.1% DMSO treated cells were used as negative control. HKGS growth factors was used as a positive control.
# Western blot: 7.5 μg of total extract was loaded on 10% acrylamide gel. Following transfer, the membranes were blocked with TBST/5% skimmed milk and then incubated with Mouse anti Phospho-ERK (1:1000 in TBST 5% BSA, ON at 4° C.) and goat anti Mouse HRP (1:10,000 in TBST 5% BSA, 1-hour RT). The membranes were exposed using SuperSignal West Pico Chemiluminescent Substrate.
# The HRP was then inactivated by incubating the membranes for 1 hour with 0.5% sodium azide Following washes and ECL exposure in order to ensure absence of signal, the membranes were re-blocked for 15 min with TBST/5% skimmed milk and then incubated with Rabbit anti total ERK2 (1:500 in TBST 5% BSA, ON at 4° C.), goat anti Rabbit HRP (1:5,000 in TBST 5% BSA, 1-hour RT) and finally exposed using the SuperSignal West Pico Chemiluminescent Substrate. The films were scanned and the signal were quantified using ImageJ software. The results were calculated as Phospho-ERK/total ERK.
# HKGS was used as a positive control.
# [14] = biological target: wild-type BRaf (Homo sapiens, UniProt P15056); assay: BRaf inhibitory activity assay; format: biochemical; settings: read-out: Compound IC50 BRAF
# Protocol: (§2) In this assay, the BRaf inhibitory activity of the compound of formula I, where
# (§3) Reactions were carried out at 10 μM ATP.
# [15] = biological target: BRAF (V600E) (Homo sapiens, UniProt P15056, V600E); assay: BRaf inhibitory activity assay; format: biochemical; settings: read-out: Compound IC50 BRAF (V600E)
# Protocol: as §2, §3
smiles,measurement,setting,value
Cc1ccc2c(Nc3cccc(OC(F)(F)F)c3)nccc2c1Nc1ncccc1-c1ncnc2[nH]cnc12 [LUT014],IVIS,[1],≤ 3
same,classification for eye irritation or serious eye damage,[1],no classification is required
same,remaining activity at 0.01 µM,[2]; Lut014 @ 0.01 μM,96%
same,remaining activity at 1 µM,[2]; Lut014 @ 1 μM,94%
same,remaining activity at 0.01 µM,[3]; Lut014 @ 0.01 μM,100%
same,remaining activity at 1 µM,[3]; Lut014 @ 1 μM,96%
same,remaining activity at 0.01 µM,[4]; Lut014 @ 0.01 μM,92%
same,remaining activity at 1 µM,[4]; Lut014 @ 1 μM,84%
same,remaining activity at 0.01 µM,[5]; Lut014 @ 0.01 μM,96%
same,remaining activity at 1 µM,[5]; Lut014 @ 1 μM,79%
same,remaining activity at 0.01 µM,[6]; Lut014 @ 0.01 μM,96%
same,remaining activity at 1 µM,[6]; Lut014 @ 1 μM,89%
same,remaining activity at 0.01 µM,[7]; Lut014 @ 0.01 μM,110%
same,remaining activity at 1 µM,[7]; Lut014 @ 1 μM,98%
same,remaining activity at 0.01 µM,[8]; Lut014 @ 0.01 μM,94%
same,remaining activity at 1 µM,[8]; Lut014 @ 1 μM,109%
same,remaining activity at 0.01 µM,[9]; Lut014 @ 0.01 μM,109%
same,remaining activity at 1 µM,[9]; Lut014 @ 1 μM,112%
same,remaining activity at 0.01 µM,[10]; Lut014 @ 0.01 μM,103%
same,remaining activity at 1 µM,[10]; Lut014 @ 1 μM,95%
same,remaining activity at 0.01 µM,[11]; Lut014 @ 0.01 μM,113%
same,remaining activity at 1 µM,[11]; Lut014 @ 1 μM,102%
same,remaining activity at 0.01 µM,[12]; Lut014 @ 0.01 μM,98%
same,remaining activity at 1 µM,[12]; Lut014 @ 1 μM,92%
same,increase of phospho-ERK compared to the DMSO treated cells,[13],200-800%
same,phospho-ERK when added to cells treated with Erlotinib,[13],increased
same,phospho-ERK when added to cells treated with cetuximab,[13],increased
same,IC50,[14],11.7 nM
same,IC50,[15],13.3 nM
